Results published in patent EP2088149A1 (priority 2006, dated 2008).

What was measured:
[1] = Acute toxicity (LD50, Litchfield and Wilcoxon), intraperitoneal, 14 days follow-up; settings: mouse, in vivo, ip; male white outbred mice, intraperitoneally, follow-up 14 days
Description: Acute toxicity of the substances was determined on males of white outbred mice weighing 22 to 26 grams. The substances were administered intraperitoneally as a solution or a suspension in 1% starch solution. Follow-up period was 14 days.

AMPA receptors = assay: Patch-clamp potentiation of kainate-induced trans-membrane currents in freshly isolated cerebellar Purkinje's neurons; assay type: cell-based, rat; settings: for Potentiation of cainate-induced currents (%) / Potentiation of cainate-induced currents (%): blockade: rat cerebellar Purkinje's neurons; for Washing returned the amplitude of responses to the control value: washing time after application of the compound; for Potentiation of cainate-induced currents (%): blockade: 10 µM, values are printed as blockade, without minus sign
Description: The inventors used determining the potentiating effect of novel compounds on kainate-induced trans-membrane currents in cerebellar Purkinje's neurons of rats for a directed search for compounds capable of potentiating responses of AMPA receptors (and thereby, to cause improvement of memory and cognitive functions).
Experiments on assessing the effect of substances on AMPA receptors were carried out using the patch-clamp method on freshly isolated Purkinje's neurons isolated from cerebellum of rats (aged 12 to 15 days). A modified method was used for isolation. 400 to 600 µm thick cerebellar slices were placed into a thermostatic 10 ml chamber. A solution for isolation had the following composition (in mM): NaCl 150.0, KCl 5.0; CaCl2 2.0, MgSO4×7H2O 2.0, HEPES 10.0, glucose 15.0, pH 7.42. The slices were incubated in this solution for 60 minutes, and thereafter, the solution was replaced by a similar solution comprising pronase (2 mg/ml) and collagenase (1 mg/ml) and incubated for 70 minutes. After washing with the original solution for 20 minutes, the slices were placed into a Petri plate and separated by a mechanic method using a Pasteur pipette. The solutions were continuously blown-through with 100% O2 at temperature 34°C. Purkinje's neurons were placed into a 0.6 ml working chamber. A process solution had the following composition (in mM): NaCl 150.0, KCl 5.0; CaCl2 2.6, MgSO4×7H2O 2.0, HEPES 10.0, glucose 15.0, pH 7.36.
Trans-membrane currents were induced by activation of AMPA receptors by applying agonist solutions of these receptors, i.e. cainic acid (CA) using a fast superfusion method. Cainic acid is an agonist of AMPA receptors and it is used for studying properties of AMPA receptors, since AMPA as such causes a too strong desensitization of the receptors, and it is not used in such experiments. Currents were recorded using borosilicate micro electrodes (resistance 1.5 to […]) filled with a following composition (in mM): KCl 100.0; EGTA 11.0, CaCl2 1.0, MgCl2 1.0, HEPES 10.0, ATP 5.0, pH 7.2.
The instrument EPC-9 (HEKA, Germany) was used for recoding. Currents were recorded on the PC Pentium-4 hard disc using the Pulse software, also purchased from the HEKA company. Results were processed using the Pulsefit software (HEKA).
Applying KK induced trans-membrane inward currents in Purkinje's neurons. Addition of the compounds of formula I to perfusion solution induced increase in amplitude of the currents. This increase was dependent on a compound, on concentration thereof, on time elapsed following commencement of a compound application.

[2] = 0.1 µM, negative values = blockade of the currents
[3] = 1 µM, negative values = blockade of the currents

Compound | LD50 at 14 days [1] [mg/kg] | Potentiation of cainate-induced currents (%) (AMPA receptors; 0.0001 µM) | Potentiation of cainate-induced currents (%) (AMPA receptors; 0.001 µM) | Potentiation of cainate-induced currents (%) (AMPA receptors; 0.001 µM, listed as 1 (XXXI)) | Potentiation of cainate-induced currents (%) (AMPA receptors; 0.01 µM) | Potentiation of cainate-induced currents (%) (AMPA receptors; 0.01 µM, listed as 1 (XXXI)) [µM - potentiation by 80%] | Potentiation of cainate-induced currents (%) (AMPA receptors; [2]) | Potentiation of cainate-induced currents (%) (AMPA receptors; 0.1 µM, negative values = blockade of the currents, listed as 1 (XXXI)) | Potentiation of cainate-induced currents (%) (AMPA receptors; [3]) | Potentiation of cainate-induced currents (%) (AMPA receptors; 1 µM, negative values = blockade of the currents, listed as 1 (XXXI)) | Washing returned the amplitude of responses to the control value (AMPA receptors) [min] | Potentiation of cainate-induced currents (%) (AMPA receptors; 0.00001 µM) | Potentiation of cainate-induced currents (%) (AMPA receptors; 0.00001 µM, listed as 2 (XXX2)) | Potentiation of cainate-induced currents (%) (AMPA receptors; 0.0001 µM, listed as 2 (XXX2)) | Potentiation of cainate-induced currents (%) (AMPA receptors; 0.001 µM, listed as 2 (XXX2)) | Potentiation of cainate-induced currents (%) (AMPA receptors; 0.01 µM, listed as 2 (XXX2)) | Potentiation of cainate-induced currents (%) (AMPA receptors; 0.1 µM, negative values = blockade of the currents, listed as 2 (XXX2)) | Potentiation of cainate-induced currents (%): blockade (AMPA receptors) | Potentiation of cainate-induced currents (%) (AMPA receptors; 30 µM)
CC12CN(C(=O)c3ccc4c(c3)OCCO4)CC(C)(CN(C(=O)c3ccc4c(c3)OCCO4)C1)C2=O [Compound 1, 3,7-bis(2,3-dihydro-1,4-benzodioxin-6-ylcarbonyl)-1,5-dimethyl-3,7-diazabicyclo[3.3.1]nonan-9-one] | 350 | 0.0001 µM - no potentiation | 40 to 50% | 0.001 µM - potentiation by 40 to 50%, | 80% | 0.01 | 0% | 0.1 µM - 0%, | -20 to -40% | 1 µM - blockade by -20 to -40% | 3 to 5 |  |  |  |  |  |  |  | 
CC12CN(C(=O)c3ccc4c(c3)OCO4)CC(C)(CN(C(=O)c3ccc4c(c3)OCO4)C1)C2=O [Compound 2, 3,7-bis(1,3-benzodioxol-5-ylcarbonyl)-1,5-dimethyl-3,7-diazabicyclo[3.3.1]nonan-9-one] | 140 | 50-90% | 60-140% |  | 0-20% |  |  |  |  |  | 4 to 6 | 10 | 0.00001 µM -potentiation by 20 to 40% | 0.0001 µM - potentiation by 50 to 90%, | 0.001 µM - potentiation by 60 to 140% | 0.01 µM - potentiation by 0 to 20%, | 0.1 µM - blockade by -20 to -40% |  | 
Cc1nc2ccc(C(=O)N3CC4(C)CN(C(=O)c5ccc6nc(C)c(C)nc6c5)CC(C)(C3)C4=O)cc2nc1C [Compound 3, 3,7-bis[(2,3-dimethylquinoxalin-6-yl)carbonyl]-1,5-dimethyl-3,7-diazabicyclo[3.3.1]nonan-9-one] | 90 | 0.0001 µM - no potentiation | 0.001 µM - potentiation by 10 to 15% |  | 0.01 µM - potentiation by 20 to 30%, |  | 0.1 µM - blockade by -20 to -50% |  | 1 µM - no potentiation |  |  |  |  |  |  |  |  | 10 µM - blockade by 20 to 50% | 
COc1ccc(C(=O)N2CC3(C)CN(C(=O)c4ccc(OC)c(Cn5cccn5)c4)CC(C)(C2)C3=O)cc1Cn1cccn1 [Compound 4] | 900 |  | 0.001 µM - no effect |  | 0.01 µM - potentiation by 10 to 30%, |  | 0.1 µM - blockade by -20 to -40% |  | 1 µM - 0% |  |  |  |  |  |  |  |  | 10 µpM - blockade by 15 to 35% | 
CC12CC3CC(C)(C1)CC(N)(C3)C2 [Memantine, reference compound] | 1000 |  |  |  |  |  |  |  |  |  |  |  |  |  |  |  |  |  | potentiation by 0 to 15% at 30 µM
